Test results taken from patent publication US20170191058A1, “PERFORIN 2 DEFENSE AGAINST INVASIVE AND MULTIDRUG RESISTANT PATHOGENS” (priority 2012, published 2017).
“Also recorded” adds a separate entry of the source. Residues, ends and D or L forms follow the SMILES beside them. *: point of attachment. Cbz = O=C(OCc1ccccc1)*

Assays:
S. typhimurium = assay: Gentamycin protection assay: intracellular S. typhimurium in peritoneal macrophages (PEM); format: cell-based, Salmonella typhimurium; settings: for additional effect on intracellular replication/killing when combined with P-2 knockdown: inhibitor plus P-2 siRNA knock down; for effect on intracellular killing of Salmonellae: single effector blocked, 1-5 h post-infection
Description: (§1) Gentamicin protection assay: S. typhimurium strain LT2Z, Mycobacterium avium, Mycobacterium smegmatis (ATCC), methicllin resistant Staphylococcus aureus and K12 E. coli were grown from glycerol stocks at 37° C. with shaking for 16-18 hr in Luria broth (LB) (S. typhimurium, S. aureus, and E. coli) or Middlebrook 7H9 broth (Mycobacteria) prior to infection. For Salmonella, the culture was then diluted 1:33 in LB and grown for another 3 hours to induce invasive phenotype. Macrophages or microglial cells were plated (5×10^5 cells/well of a 12 well plate) and stimulated overnight with LPS (Ing/ml) and IFN-γ (100 U/ml). Cells were infected the next day at indicated MOI for 30 minutes (S. typhimurium,) or 1 hour (all other bacteria) in 37° C., 5% CO2 incubator. Cells were washed twice with PBS and fresh medium containing 50 μg/ml gentamicin was added. After 2 hours the concentration of gentamicin was lowered to 5 μg/ml. At the indicated timepoints after adding gentamicin, the cells were washed with PBS, lysed using 0.1% Triton-X in water, diluted and plated in triplicate on agar plates and CFU determined.
The current understanding of bactericidal responses in macrophages is that they are mediated by oxidative mechanisms, such as ROS and NO within the phagosome, and by phagosome-lysosome fusion. To assess the role of P-2 in comparison to ROS and NO in intracellular killing of bacteria, each of the bactericidal effectors was blocked individually or in combination with P-2, and intracellular bacterial survival in peritoneal macrophages (PEM) measured between 1 and 5 hours post-infection utilizing the gentamycin protection assay (FIGS. 1A-1C). Gentamycin is membrane impermeable and present only in the extracellular medium. Inhibition of ROS, NO or P-2 individually had different effects on different bacteria. Using S. typhimurium, ˜90% bacteria present intracellularly in PEM at 1 h were dead at 5 h in the absence of inhibitors (˜10% survival, FIG. 1 A). […] In other words without P-2 ROS and NO have little effect on killing of Salmonellae.
Here we analyze the bactericidal efficiency of each effector pathway and their synergism. We blocked each effector individually and determined intracellular survival and replication or killing of intracellular S. typhimurium and M. smegmatis. These experiments were carried out with intestinal epithelial cells (CMT93) (not shown) and in IFN-γ activated PEM (FIG. 27e) with virtually identical results. First, we ascertained that IFN-γ activated and LPS stimulated PEM produced ROS and NO and that this production is not affected by P-2 siRNA knock down. We also ascertained that the ROS and NO inhibitors used were specific and active in blocking ROS or NO (not shown). PEM are able to kill about 90% of intracellular Salmonella in the first four hours after infection when all three effectors were active in scramble siRNA transfected cells (FIG. 27e, solid lines). […] M. smegmatis is more resistant to killing by bactericidal effectors within 4 hours. […] Blockade of ROS or NO without P-2 knock down had only limited, non-significant effects on bactericidal activity against Mycobacteria.
Intracellular bactericidal activity was adapted from. In brief, bacteria were grown at 37° C. with shaking for 16-18 hours in Luria broth (LB) (S. typhimurium, S. aureus, and E. coli) or 24 hours in Middlebrook 7H9 broth (Mycobacteria) prior to infection. For S. typhimurium, E. coli, and S. aureus the culture was then diluted 1:33 in LB and grown for another 3 hours to allow the bacteria to enter log phase and for Salmonella to induce the invasive phenotype. Eukaryotic cells were transfected following Lonza's optimized protocol for the respective cells, and plated into 12-well plates post-transfection. […]

[1] = system: E. coli, S. typhimurium and M. smegmatis; assay: Bacterial growth in medium with ROS/NO inhibitors, no PEM (OD 600); format: cell-based; settings: 10 mM, IMDM+10% FBS, 5 hours
Description: E. coli, S. typhimurium and M. smegmatis were grown in IMDM+10% FBS in the presence or absence of NAC (10 mM) or L-NAME (10 mM) for 5 hours. Bacterial growth was measured by spectrophotometer at an OD of 600 nm at 1 and 4 hours after addition of inhibitors to the culture medium.

[2] = system: E. coli, S. typhimurium, M. smegmatis; assay: Gentamycin protection assay in PEM infected with E. coli, S. typhimurium or M. smegmatis (FIG. 1); format: cell-based; settings: 10 mM NAC, 10 mM L-NAME or pool of 3 siRNAs, CFU at 1 h and 5 h
Description: The gentamycin protection assay was carried out as in FIGS. 2A-2F. 24 h after transfection with P-2 siRNA or scrambled siRNA. PEM were infected with (FIG. 1A) E. coli, (FIG. 1B) S. typhimurium, or (FIG. 1C) M. smegmatis. Inhibitors were added 1 h before infection and maintained throughout assay. Cells were lysed and CFU determined at 1 h and 5 h post-infection. Data shown are representative of 3 experiments with 2 replicates; asterisks denote significance (p<0.05) based on students t-test.
as §1, with “Cells were infected the next day at indicated MOI for 30 minutes (S. typhimurium,) or 1 hour (all other bacteria) in 37° C., 5% CO2 incubator. Cells were washed twice with PBS and fresh medium containing 50 μg/ml gentamicin was added. After 2 hours the concentration of gentamicin was lowered to 5 μg/ml.” left out

P-2 mRNA = P-2 mRNA expression in mEF by TAQMAN PCR after cytokine treatment; format: cell-based, murine; settings: added singly, 14 hours
Description: (§2) Murine embryonic fibroblasts (FIG. 14A), a rectal cancer cell line (FIG. 14B), myoblast cell line (FIG. 14C), and an ovarian cell line (FIG. 14D) were treated for 14 hours with 100 U/ml interferon-α, interferon-β, and interferon-γ treated. LPS was treated at 1 ng/ml; IL-1α at 10 U/ml, IL-1β at 1 ng/ml, and TNFα at 20 ng/mL. A human embryonic kidney cell line (FIG. 14E) and cervical cancer cell line (FIG. 14F) were treated with human IFN-α at 150 U/ml, IFN-β and IFN-γ at 100 U/ml. The BV2 microglial cell line was stimulated with 100 U/ml of murine Interferon-γ for 14 hours to upregulate P-2 mRNA and protein. mEF treated with IFN-γ for 14 hours (mEF), or IFN-γ for 14 hours followed by 1 hour of treatment with […] MG-132 (mEF+MG132) (FIG. 14G). Human primary keratinocytes were analyzed for protein expression with indicated recombinant human IFN treatment (FIG. 14H). mEF were treated with E. coli or M. smegmatis. At indicated time points, cells were harvested and analyzed for P-2 mRNA and compared to uninfected controls by TAQMAN™ PCR. (FIG. 14I) mEF were either not stimulated, or stimulated for 14 hours with IFN-γ at 100 U/ml. After stimulation, mEF were infected with M. smegmatis and analyzed for colony forming units at indicated time points.
Recombinant murine IL-1α, IL-1β, TNFα, IFN-γ, IFN-α, IFN-β recombinant human IFN-γ, IFN-β were purchased from preprotech. Recombant human IFN-α was purchased from R&D systems. Murine […] was supplemented at 10 U/mL where indicated. Murine IL-1β was supplemented at 1 ng/ml. Murine TNFα was supplemented at 20 ng/ml. Murine IFN-α, IFN-β and IFN-γ was supplemented with 100 U/ml. Human IFN-α was supplemented where indicated in at a concentration of 150 U/ml where indicated. Human IFN-β and IFN-γ was supplemented at a concentration of 100 U/ml. LPS was added at a concentration of 1 ng/ml.
RNA was extracted from cells following RNeasy (Qiagen) instructions. One μg of RNA was converted to cDNA using QuantiTect Reverse Transcription kit (Qiagen) following supplier's protocol. qRT-PCR was performed using TAQMAN® Gene Expression Assays (Applied Biosystems) for murine Mpeg1 and GAPDH, with the later serving as a housekeeping control gene. For human tissues, human Mpeg1 and GapDH probes were utilized. All assays were performed on the Applied Biosystems 7300 PCR platform.

P-2 protein = assay: Western blot of P-2 protein in interferon-activated mEF; format: cell-based, murine; settings: IFN-γ 14 hours then 1 hour MG-132
Description: as §2
Rabbit anti-Mpeg1 polyclonal antibody was obtained from Abcam and used for western blot analysis.

Salmonella = assay: Gentamycin protection assay: intracellular Salmonella in mEF; format: cell-based, Salmonella typhimurium
Description: Mouse rectal carcinoma CMT-93 was transiently transfected with a P-2 siRNA pool, or with P-2-RFP. Scramble siRNA or RFP were also transfected and analyzed to serve as controls for P-2 siRNA and P-2-RFP respectively. All transfections were performed 24 hours prior to infection. 14 hours prior to infection, cells were incubated with 100 U/ml of species specific IFN-γ. At indicated time points after infection, cells were lysed and plated for CFU analysis. (FIGS. 16A-16D) mEF were transfected with P-2siRNA and complemented with siRNA resistant P-2-RFP cDNA 24 hours prior to infection. 14 hours prior to infection, interferon-γ was added. mEF were infected with late log phase S. typhimurium. At indicated time points mEFs were lysed and analyzed for colony forming units. […]
S. typhimurium strain LT2Z), Mycobacterium smegmatis, methicillin-resistant Staphylococcus aureus, and E. coli strain K12 were grown from glycerol stocks at 37° C. with shaking for 24 hours in Luria broth (S. typhimurium, S. aureus, and E. coli) or Middlebrook 7H9 broth (M. smegmatis). […] At indicated time points, cells were washed with PBS, lysed using 1% Igepal in ddH2O, diluted and plated in technical triplicate on LB agar plates (S. typhimurium, S. aureus, E. coli) or Middlebrook 7H11 plates (M. smegmatis) and CFU determined after sufficient colony growth.

CC(=O)N[C@@H](CS)C(=O)O [NAC, N-Acetylcysteine]
survival of Salmonellae at 5 h compared to 1 h levels (S. typhimurium; inhibitor 10 mM, added 1 h before infection, ~10% survival without inhibitors): ~80% | additional effect on intracellular replication/killing when combined with P-2 knockdown (S. typhimurium): did not further increase intracellular replication; also recorded: no further effect | effect on intracellular killing of Salmonellae (S. typhimurium): slows down the killing activity | effect on bacterial growth in the absence of PEM [1]: do not directly inhibit bacterial growth | intracellular killing [2]: Intracellular killing was inhibited

IFNα
P-2 mRNA induction in mEF (P-2 mRNA): up-regulates P-2 mRNA

COC(=O)[C@@H](N)CCCN=C(N)N[N+](=O)[O-].Cl [L-NAME, N^G-nitro-L-arginine-methyl ester hydrochloride]
additional effect on intracellular replication/killing when combined with P-2 knockdown (S. typhimurium; hydrochloride): did not further increase intracellular replication | additional effect on intracellular replication/killing when combined with P-2 knockdown (S. typhimurium; listed as NAME, hydrochloride): no further effect | effect on intracellular killing of Salmonellae (S. typhimurium; hydrochloride): slows down the killing activity | effect on bacterial growth in the absence of PEM [1]: do not directly inhibit bacterial growth | intracellular killing [2]: Intracellular killing was inhibited

CC(C)C[C@@H](C=O)NC(=O)[C@H](CC(C)C)NC(=O)[C@H](CC(C)C)NC(=O)OCc1ccccc1 [MG132] (Cbz-Leu-Leu-Leu-aldehyde)
detection of P-2 protein by Western blot (P-2 protein): P-2 protein is not detected by Western blot analysis of interferon-activated mEF unless the proteasome inhibitor MG132 is added

TNFα
P-2 mRNA induction in mEF (P-2 mRNA): do not induce P-2 mRNA

Cn1cnc(N)c2ncnc1-2 [3-MA, 3-methyl-adenine]
effect on intracellular Salmonella replication in mEF (Salmonella): permits Salmonella replication; also recorded: allows replication of Salmonella

B1: IL-1α: recombinant murine IL-1α (protein, UniProt P01582 115-270, looked up)
Interleukin-1 alpha: SAPYTYQSDLRYKLMKLVRQKFVMNDSLNQTIYQDVDKHYLSTTWLNDLQQEVKFDMYAYSSGGDDSKYPVTLKISDSQLFVSAQGEDQPVLLKELPETPKLITGSETDLIFFWKSINSKNYFTSAAYPELFIATKEQSRVHLARGLPSMTDFQIS
P-2 mRNA induction in mEF (P-2 mRNA): do not induce P-2 mRNA
